Source: US9944602B2, “Piperidinone herbicides” (E. I. DU PONT DE NEMOURS AND COMPANY, priority 2014, dated 2018)

Legend:
Type in all cases: in vivo
[1] = system: johnsongrass (Sorghum halepense); experiment: Test C postemergence johnsongrass; conditions: Table C, scale 0 to 100
Text: (§1) Seeds of plant species selected from blackgrass (Alopecurus myosuroides), ryegrass, Italian (Italian ryegrass, Lolium multiflorum), wheat (winter wheat, Triticum aestivum), galium (catchweed bedstraw, Galium aparine), corn (Zea mays), crabgrass, large (large crabgrass, Digitaria sanguinalis), foxtail, giant (giant foxtail, Setaria faberii), johnsongrass (Sorghum halepense), lambsquarters (Chenopodium album), morningglory (Ipomoea coccinea), yellow (yellow nutsedge, Cyperus esculentus), pigweed (Amaranthus retroflexus), ragweed (common ragweed, Ambrosia elatior), soybean (Glycine max), barnyardgrass (Echinochloa crus-galli), oilseed rape (Brassica napus), waterhemp (common waterhemp, Amaranthus rudis), and velvetleaf (Abutilon theophrasti) were planted into a blend of loam soil and sand and treated preemergence with test chemicals formulated in a non-phytotoxic solvent mixture which included a surfactant. At the same time, plants selected from these crop and weed species and also chickweed (common chickweed, Stellaria media), kochia (Kochia scoparia), and oat, wild (wild oat, Avena fatua) were planted in pots containing Sunshine Redi-Earth® planting medium comprising spaghnum peat moss, vermiculite, starter nutrients and dolomitic limestone and treated with postemergence applications of test chemicals formulated in the same manner. Plants ranged in height from 2 to 18 cm (1- to 4-leaf stage) for postemergence treatments. Treated plants and controls were maintained in a greenhouse for 13 to 15 days, after which time all species were compared to controls and visually evaluated. Plant response ratings, summarized in Table C, are based on a scale of 0 to 100 where 0 is no effect and 100 is complete control. A dash (-) response means no test result.

[2] = system: oilseed rape (Brassica napus); experiment: Test C postemergence oilseed rape; conditions: Table C, scale 0 to 100
Text: as §1

[3] = system: lambsquarters (Chenopodium album); experiment: Test C postemergence lambsquarters; conditions: Table C, scale 0 to 100
Text: as §1

[4] = system: wheat (winter wheat, Triticum aestivum); experiment: Test C postemergence wheat; conditions: Table C, scale 0 to 100
Text: as §1

[5] = system: yellow (yellow nutsedge, Cyperus esculentus); experiment: Test C postemergence yellow nutsedge; conditions: Table C, scale 0 to 100
Text: as §1

[6] = system: crabgrass, large (large crabgrass, Digitaria sanguinalis); experiment: Test C postemergence crabgrass, large; conditions: Table C, scale 0 to 100
Text: as §1

[7] = system: ragweed (common ragweed, Ambrosia elatior); experiment: Test C preemergence ragweed; conditions: Table C, scale 0 to 100
Text: as §1

[8] = system: wheat (winter wheat, Triticum aestivum); experiment: Test C preemergence wheat; conditions: Table C, scale 0 to 100
Text: as §1

[9] = system: barnyardgrass (Echinochloa crus-galli); experiment: Test C preemergence barnyardgrass; conditions: Table C, scale 0 to 100
Text: as §1

[10] = system: pigweed (Amaranthus retroflexus); experiment: Test C preemergence pigweed; conditions: Table C, scale 0 to 100
Text: as §1

[11] = system: oilseed rape (Brassica napus); experiment: Test C preemergence oilseed rape; conditions: Table C, scale 0 to 100
Text: as §1

corn (Zea mays) = experiment: Test C preemergence corn; conditions: Table C, scale 0 to 100
Text: as §1

[12] = system: blackgrass (Alopecurus myosuroides); experiment: Test C preemergence blackgrass; conditions: Table C, scale 0 to 100
Text: as §1

[13] = system: johnsongrass (Sorghum halepense); experiment: Test C preemergence johnsongrass; conditions: Table C, scale 0 to 100
Text: as §1

soybean (Glycine max) = experiment: Test C preemergence soybean; conditions: Table C, scale 0 to 100
Text: as §1

[14] = system: morningglory (Ipomoea spp.); experiment: Test A postemergence morningglory; conditions: 0 to 100 scale, 0 is no effect, 100 is complete control
Text: (§2) Seeds of plant species selected from barnyardgrass (Echinochloa crus-galli), kochia (Kochia scoparia), ragweed (common ragweed, Ambrosia elatior), ryegrass, Italian (Italian ryegrass, Lolium multiflorum), crabgrass, large (large crabgrass, Digitaria sanguinalis), foxtail, giant (giant foxtail, Setaria faberii), morningglory (Ipomoea spp.), pigweed (Amaranthus retroflexus), velvetleaf (Abutilon theophrasti), wheat (Triticum aestivum), and corn (Zea mays) were planted into a blend of loam soil and sand and treated preemergence with a directed soil spray using test chemicals formulated in a non-phytotoxic solvent mixture which included a surfactant.
(§3) At the same time, plants selected from these crop and weed species and also blackgrass (Alopecurus myosuroides), and galium (catchweed bedstraw, Galium aparine) were planted in pots containing the same blend of loam soil and sand and treated with postemergence applications of test chemicals formulated in the same manner. Plants ranged in height from 2 to 10 cm and were in the one- to two-leaf stage for the postemergence treatment. Treated plants and untreated controls were maintained in a greenhouse for approximately 10 d, after which time all treated plants were compared to untreated controls and visually evaluated for injury. Plant response ratings, summarized in Table A, are based on a 0 to 100 scale where 0 is no effect and 100 is complete control. A dash (-) response means no test result.

[15] = system: wheat (Triticum aestivum); experiment: Test A preemergence wheat; conditions: 0 to 100 scale, 0 no effect, 100 complete control
Text: as §2, §3

[16] = system: velvetleaf (Abutilon theophrasti); experiment: Test A postemergence velvetleaf; conditions: 0 to 100 scale, 0 is no effect, 100 is complete control
Text: as §2, §3

[17] = system: crabgrass, large (large crabgrass, Digitaria sanguinalis); experiment: Test A preemergence crabgrass, large; conditions: 0 to 100 scale; for Crabgrass, Large plant response rating: 125 g ai/ha, 0 no effect, 100 complete control; for Plant response rating, Crabgrass, Large: 500 g ai/ha, 0 is no effect, 100 is complete control
Text: as §2, §3

O=C1NCCC(c2cccc(C(F)(F)F)c2)C1C(=O)Nc1ccccc1Cl (racemic) [Compound 17]
Plant response rating ([1]; 31 g ai/ha): 0 | Plant response rating ([1]; 62 g ai/ha): 0 | Plant response rating ([1]; 125 g ai/ha): 0 | Plant response rating ([1]; 250 g ai/ha): 0 | Plant response rating ([2]; 31 g ai/ha): 0 | Plant response rating ([2]; 62 g ai/ha): 0 | Plant response rating ([2]; 125 g ai/ha): 0 | Plant response rating ([2]; 250 g ai/ha): 0 | Plant response rating ([3]; 62 g ai/ha): 75 | Plant response rating ([3]; 250 g ai/ha): 80 | Plant response rating ([4]; 31 g ai/ha): 0 | Plant response rating ([4]; 62 g ai/ha): 0 | Plant response rating ([4]; 125 g ai/ha): 0 | Plant response rating ([4]; 250 g ai/ha): 0 | Plant response rating ([5]; 31 g ai/ha): 0 | Plant response rating ([5]; 62 g ai/ha): 0 | Plant response rating ([5]; 125 g ai/ha): 0 | Plant response rating ([5]; 250 g ai/ha): 0 | Plant response rating ([6]; 31 g ai/ha): 5 | Plant response rating ([6]; 62 g ai/ha): 20 | Plant response rating ([6]; 125 g ai/ha): 20 | Plant response rating ([6]; 250 g ai/ha): 55

O=C1NCCC(c2cccc(C(F)(F)F)c2)C1C(=O)Nc1ccc(F)c(F)c1F (racemic) [Compound 28]
Plant response rating ([7]; 31 g ai/ha): 0 | Plant response rating ([7]; 62 g ai/ha): 0 | Plant response rating ([7]; 125 g ai/ha): 0 | Plant response rating ([7]; 250 g ai/ha): 0 | Plant response rating ([8]; 31 g ai/ha): 0 | Plant response rating ([8]; 62 g ai/ha): 0 | Plant response rating ([8]; 125 g ai/ha): 0 | Plant response rating ([8]; 250 g ai/ha): 10 | Plant response rating ([9]; 31 g ai/ha): 60 | Plant response rating ([9]; 62 g ai/ha): 75 | Plant response rating ([9]; 125 g ai/ha): 90 | Plant response rating ([9]; 250 g ai/ha): 95 | Plant response rating ([10]; 125 g ai/ha): 0 | Plant response rating ([11]; 31 g ai/ha): 0 | Plant response rating ([11]; 62 g ai/ha): 0 | Plant response rating ([11]; 125 g ai/ha): 0 | Plant response rating ([11]; 250 g ai/ha): 0 | Plant response rating (corn (Zea mays); 31 g ai/ha): 0 | Plant response rating (corn (Zea mays); 62 g ai/ha): 0 | Plant response rating (corn (Zea mays); 125 g ai/ha): 30 | Plant response rating (corn (Zea mays); 250 g ai/ha): 55 | Plant response rating ([12]; 31 g ai/ha): 35 | Plant response rating ([12]; 62 g ai/ha): 40 | Plant response rating ([12]; 125 g ai/ha): 70 | Plant response rating ([12]; 250 g ai/ha): 90 | Plant response rating ([13]; 31 g ai/ha): 0 | Plant response rating ([13]; 62 g ai/ha): 0 | Plant response rating ([13]; 125 g ai/ha): 0 | Plant response rating ([13]; 250 g ai/ha): 10 | Plant response rating (soybean (Glycine max); 31 g ai/ha): 0 | Plant response rating (soybean (Glycine max); 62 g ai/ha): 0 | Plant response rating (soybean (Glycine max); 125 g ai/ha): 0 | Plant response rating (soybean (Glycine max); 250 g ai/ha): 0

O=C1NCCC(c2cccc(C(F)(F)F)c2)C1C(=O)Nc1cccc(F)c1F (centres unmarked) [Compound 9, N-(2,3-difluorophenyl)-2-oxo-4-[3-(trifluoromethyl)phenyl]-3-piperidinecarboxamide]
Plant response rating ([7]; 31 g ai/ha): 0 | Plant response rating ([7]; 62 g ai/ha): 0 | Plant response rating ([7]; 125 g ai/ha): 10 | Plant response rating ([7]; 250 g ai/ha): 20 | Plant response rating ([8]; 31 g ai/ha): 0 | Plant response rating ([8]; 62 g ai/ha): 30 | Plant response rating ([8]; 125 g ai/ha): 55 | Plant response rating ([8]; 250 g ai/ha): 70 | Plant response rating ([9]; 31 g ai/ha): 75 | Plant response rating ([9]; 62 g ai/ha): 90 | Plant response rating ([9]; 125 g ai/ha): 95 | Plant response rating ([9]; 250 g ai/ha): 95 | Plant response rating, Morningglory ([14]; 125 g ai/ha): 0 | Plant response rating, Morningglory ([14]; 500 g ai/ha): 40 | Plant response rating ([1]; 31 g ai/ha): 0 | Plant response rating ([1]; 62 g ai/ha): 0 | Plant response rating ([1]; 125 g ai/ha): 0 | Plant response rating ([1]; 250 g ai/ha): 5 | Plant response rating ([10]; 31 g ai/ha): 5 | Plant response rating ([10]; 62 g ai/ha): 0 | Plant response rating ([10]; 125 g ai/ha): 0 | Plant response rating ([10]; 250 g ai/ha): 10 | Plant response rating ([2]; 31 g ai/ha): 0 | Plant response rating ([2]; 62 g ai/ha): 0 | Plant response rating ([2]; 125 g ai/ha): 0 | Plant response rating ([2]; 250 g ai/ha): 5 | Plant response rating ([11]; 31 g ai/ha): 0 | Plant response rating ([11]; 62 g ai/ha): 0 | Plant response rating ([11]; 125 g ai/ha): 0 | Plant response rating ([11]; 250 g ai/ha): 40 | Wheat plant response rating ([15]; 125 g ai/ha): 20 | Wheat plant response rating ([15]; 500 g ai/ha): 50 | Plant response rating, Velvetleaf ([16]; 125 g ai/ha): 0 | Plant response rating, Velvetleaf ([16]; 500 g ai/ha): 0 | Plant response rating ([3]; 31 g ai/ha): 0 | Plant response rating ([3]; 62 g ai/ha): 0 | Plant response rating ([3]; 125 g ai/ha): 5 | Plant response rating ([3]; 250 g ai/ha): 0 | Plant response rating ([4]; 31 g ai/ha): 0 | Plant response rating ([4]; 62 g ai/ha): 0 | Plant response rating ([4]; 125 g ai/ha): 0 | Plant response rating ([4]; 250 g ai/ha): 0 | Plant response rating ([5]; 31 g ai/ha): 0 | Plant response rating ([5]; 62 g ai/ha): 0 | Plant response rating ([5]; 125 g ai/ha): 0 | Plant response rating ([5]; 250 g ai/ha): 0 | Plant response rating (corn (Zea mays); 31 g ai/ha): 0 | Plant response rating (corn (Zea mays); 62 g ai/ha): 0 | Plant response rating (corn (Zea mays); 125 g ai/ha): 75 | Plant response rating (corn (Zea mays); 250 g ai/ha): 90 | Crabgrass, Large plant response rating [17]: 90 | Plant response rating, Crabgrass, Large [17]: 100 | Plant response rating ([12]; 31 g ai/ha): 50 | Plant response rating ([12]; 62 g ai/ha): 40 | Plant response rating ([12]; 125 g ai/ha): 80 | Plant response rating ([12]; 250 g ai/ha): 90 | Plant response rating ([13]; 31 g ai/ha): 0 | Plant response rating ([13]; 62 g ai/ha): 0 | Plant response rating ([13]; 125 g ai/ha): 35 | Plant response rating ([13]; 250 g ai/ha): 55 | Plant response rating (soybean (Glycine max); 31 g ai/ha): 0 | Plant response rating (soybean (Glycine max); 62 g ai/ha): 0 | Plant response rating (soybean (Glycine max); 125 g ai/ha): 0 | Plant response rating (soybean (Glycine max); 250 g ai/ha): 0 | Plant response rating ([6]; 31 g ai/ha): 0 | Plant response rating ([6]; 62 g ai/ha): 35 | Plant response rating ([6]; 125 g ai/ha): 75 | Plant response rating ([6]; 250 g ai/ha): 75

O=C1NCCC(c2cccc(C(F)(F)F)c2)C1C(=O)Nc1ccccc1C(F)(F)F (centres unmarked) [Compound 10, 2-oxo-N-[2-(trifluoromethyl)phenyl)-4-[3-(trifluoromethyl)phenyl]-3-piperidinecarboxamide]
Plant response rating, Morningglory ([14]; 125 g ai/ha): 0 | Plant response rating, Morningglory ([14]; 500 g ai/ha): 0 | Wheat plant response rating ([15]; 125 g ai/ha): 0 | Wheat plant response rating ([15]; 500 g ai/ha): 0 | Plant response rating, Velvetleaf ([16]; 125 g ai/ha): 0 | Plant response rating, Velvetleaf ([16]; 500 g ai/ha): 0 | Crabgrass, Large plant response rating [17]: 90 | Plant response rating, Crabgrass, Large [17]: 100
